Tested on: adults with OSA and excessive sleepiness
Experiment: Epworth Sleepiness Scale (ESS), phase 3 randomized withdrawal study in OSA
Format: in vivo, human
Conditions: for ESS score after 4 weeks of APC treatment: randomized patients, mITT
Method: The ESS is a subjective sleepiness test that is well known in the art and routinely used to measure the sleepiness level of a subject. The scale is intended to measure daytime sleepiness through the use of a short questionnaire that asks the subject to rate his or her probability of falling asleep on a scale of increasing probability from 0 to 3 for eight different situations that most people engage in during their daily lives. The scores for the eight questions are added together to obtain a single number that estimates the subject's average sleep propensity (ASP). A number in the 0-10 range is considered to be normal while 11-12 indicates mild excessive sleepiness, 13-15 indicates moderate excessive sleepiness, and 16 or higher indicates severe excessive sleepiness. Narcolepsy patients have an average score of about 17. Obstructive sleep apnea (OSA) patients with excessive sleepiness have an average score of about 15.
The study was a double-blind, placebo-controlled, enriched, randomized withdrawal design (FIG. 1). In the Titration Phase (weeks 1-2), patients started on a once-daily dose of APC 75 mg and could be titrated up or down every 3 days to reach a maximum tolerated dose of APC 75, 150, or 300 mg. In the Stable-Dose Phase (weeks 3-4), patients continued to receive the dose that they were titrated to in the Titration Phase for 2 weeks. […]
Efficacy was based on change from week 4 to 6 on the co-primary endpoints of MWT and ESS and percentage of patients reported as improved on the PGI-C and Clinician Global Impression of Change (CGI-C); assessed on a 7-point scale from 1 (very much improved) to 7 (very much worse).
MWT and ESS data were analyzed using a mixed-effect model repeated measures (MMRM); PGI-C and CGI-C were evaluated using a chi-square test. […] Safety and tolerability were evaluated based on treatment-emergent adverse events (TEAEs), vital signs, and laboratory values.

In the case of `NC(=O)OC[C@H](N)Cc1ccccc1` [JZP-110, (R)-2-amino-3-phenylpropyl carbamate], the “Mean decrease in ESS score from week 4 to week 6” value (Double-Blind Withdrawal Phase, patients who stayed on APC, P<0.0001 vs switched to placebo) is reported as 0.1, the “ESS score after 4 weeks of APC treatment” value (group decreased from 15.3 at baseline) is reported as 6.4 and the “ESS score after 4 weeks of APC treatment” value (group decreased from 16.0 at baseline) is reported as 5.9.
